Reference: BigSolDB 2.1

CC(C)(c1ccc(O)cc1)c1ccc(O)cc1
solubility (mole fraction)
Settings | 273.15 K | 278.15 K | 283.15 K | 288.15 K | 293.15 K | 298.15 K | 303.15 K | 308.15 K | 313.15 K
in ethanol | 0.209 | 0.214 | 0.22 | 0.226 | 0.232 | 0.238 | 0.245 | 0.252 | 0.26
in ethyl acetate | 0.234 | 0.238 | 0.241 | 0.243 | 0.247 | 0.252 | 0.256 | 0.261 | 0.266
in n-butanol | 0.0745 | 0.0832 | 0.094 | 0.106 | 0.119 | 0.135 | 0.147 | 0.166 | 0.183
in sec-butanol | 0.0343 | 0.0391 | 0.0465 | 0.0564 | 0.0649 | 0.0725 | 0.0846 | 0.094 | 0.105
